Measurements as given in ChEMBL document CHEMBL3792379, “Synthesis and biological evaluation of aryloxyacetamide derivatives as neuroprotective agents” (2016).
The source made the active and inactive calls. No cut-off for these calls is given here.

Experiments:
[1] = system: PC-12; test: (§1) Neuroprotective activity against glutamate-induced cell death in rat PC12 cells assessed as cell viability at 10 uM after 24 hrs by MTT assay; format: functional
[2] = system: PC-12; test: (§2) Neuroprotective activity against glutamate-induced cell death in rat PC12 cells assessed as cell viability at 0.1 uM after 24 hrs by MTT assay; format: functional
[3] = system: PC-12; test: (§3) Neuroprotective activity against glutamate-induced cell death in rat PC12 cells assessed as cell viability at 1 uM after 24 hrs by MTT assay; format: functional
[4] = as §1; format: functional; conditions: PC-12, 24 h, read-out: Activity
[5] = as §2; format: functional; conditions: PC-12, 24 h, read-out: Activity
[6] = as §3; format: functional; conditions: PC-12, 24 h, read-out: Activity
[7] = system: PC-12; test: Neuroprotective activity against glutamate-induced apoptosis in rat PC12 cells at 1 uM after 24 hrs by hoechst 33342 and propidium iodide double staining based fluorescence analysis (reference value: 43.97 +/- 2.69%); format: functional
[8] = system: PC-12; test: Neuroprotective activity against glutamate-induced apoptosis in rat PC12 cells assessed as decrease in caspase-3 level after 24 hrs by western blot analysis; format: functional, cell-based
[9] = system: PC-12; test: Neuroprotective activity against glutamate-induced apoptosis in rat PC12 cells after 24 hrs by hoechst 33342 and propidium iodide double staining based fluorescence analysis; format: functional, cell-based
[10] = system: PC-12; test: Neuroprotective activity against glutamate-induced apoptosis in rat PC12 cells at 0.1 uM after 24 hrs by hoechst 33342 and propidium iodide double staining based fluorescence analysis (reference value: 43.97 +/- 2.69%); format: functional
[11] = system: PC-12; test: Neuroprotective activity against glutamate-induced apoptosis in rat PC12 cells at 10 uM after 24 hrs by hoechst 33342 and propidium iodide double staining based fluorescence analysis (reference value: 43.97 +/- 2.69%); format: functional
[12] = system: PC-12; test: Neuroprotective activity against glutamate-induced cell death in rat PC12 cells assessed as cell viability after 24 hrs by MTT assay; format: functional, cell-based
[13] = system: PC-12; test: Neuroprotective activity against glutamate-induced apoptosis in rat PC12 cells assessed as decrease in procaspase-3 level after 24 hrs by western blot analysis; format: functional, cell-based
[14] = Neuroprotective activity against glutamate-induced cell death in rat PC12 cells assessed as cell viability at 90 uM after 24 hrs by MTT assay; format: functional; conditions: PC-12, 24 h, read-out: Activity
[15] = system: PC-12; test: Neuroprotective activity against glutamate-induced apoptosis in rat PC12 cells assessed as procaspase-3 level at 0.1 to 10 uM after 24 hrs by western blot analysis; format: functional, cell-based

Row | SMILES | viability at 10 µM [4] | viability at 0.1 µM [5] | viability at 1 µM [6] | further results
1 | COC(=O)c1ccccc1CN1CCN(C(=O)COc2ccc(C)cc2)CC1 | – | – | – | Activity [1]: inactive; Activity [2]: inactive; Activity [3]: inactive
2 | CCOc1ccc(CN2CCN(C(=O)COc3ccccc3C)CC2)cc1 | 28.9% | 35.3% | 30.6% | –
3 | COc1ccccc1OCC(=O)N1CCN(C(c2ccc(F)cc2)c2ccc(F)cc2)CC1 | 79.7% | 32% | 45.9% | Activity [7]: 31.04%; Activity [8]: Dose-dependent effect; Activity [9]: Dose-dependent effect; Activity [10]: 42.28%; Activity [11]: 19.18%; Activity [12]: Dose-dependent effect; Activity [13]: Dose-dependent effect
4 | COc1ccc(C(c2ccc(OC)cc2)N2CCN(C(=O)COc3ccccc3C)CC2)cc1 | 21.2% | 2.45% | 3.75% | –
5 | CC1=NN(c2ccccc2)C(=O)C1 [EDARAVONE] | – | – | – | viability at 90 µM [14]: 33%
6 | Cc1ccc(C(c2ccc(C)cc2)N2CCN(C(=O)COc3ccccc3C)CC2)cc1 | 11.3% | 3.24% | 4.24% | –
7 | Cc1ccc(C(c2ccc(C)cc2)N2CCN(C(=O)COc3ccc4ccccc4c3)CC2)cc1 | 10.3% | 4.75% | 5.63% | –
8 | CCOc1ccccc1CN1CCN(C(=O)COc2ccc3ccccc3c2)CC1 | 59.6% | 29.8% | 45.7% | Activity [7]: 23.73%; Activity [8]: Dose-dependent effect; Activity [9]: Dose-dependent effect; Activity [10]: 35.09%; Activity [11]: 16.21%; Activity [12]: Dose-dependent effect; Activity [15]: inactive
9 | COc1ccc(C(c2ccc(OC)cc2)N2CCN(C(=O)COc3ccc4ccccc4c3)CC2)cc1 | 25.6% | 2.55% | 5.42% | –
10 | COC(=O)c1ccccc1CN1CCN(C(=O)COc2ccc3ccccc3c2)CC1 | 49.5% | 25.6% | 37.4% | Activity [7]: 29.27%; Activity [8]: Dose-dependent effect; Activity [9]: Dose-dependent effect; Activity [10]: 35.67%; Activity [11]: 21.81%; Activity [12]: Dose-dependent effect; Activity [13]: Dose-dependent effect
11 | O=C(COc1ccc2ccccc2c1)N1CCN(C(c2ccc(Br)cc2)c2ccc(Br)cc2)CC1 | 30.2% | 4.06% | 7.87% | –
12 | Cc1ccccc1OCC(=O)N1CCN(C(c2ccc(Br)cc2)c2ccc(Br)cc2)CC1 | – | – | – | Activity [1]: inactive; Activity [2]: inactive; Activity [3]: inactive
13 | COc1ccc(OCC(=O)N2CCN(C(c3ccc(Br)cc3)c3ccc(Br)cc3)CC2)cc1 | 50.3% | 3.52% | 7.06% | –
14 | COc1ccc(OCC(=O)N2CCN(C(c3ccc(C)cc3)c3ccc(C)cc3)CC2)cc1 | 47.5% | 21.7% | 42.3% | –
15 | Cc1ccc(C(c2ccc(C)cc2)N2CCN(C(=O)COc3ccc(Cl)cc3)CC2)cc1 | 9.2% | 5.81% | 9.14% | –
16 | COc1ccc(/C=C/C(=O)N2CCN(C(c3ccc(F)cc3)c3ccc(F)cc3)CC2)cc1 | 77.8% | 71% | 49.7% | –
17 | O=C(COc1ccc(Br)cc1)N1CCN(C(c2ccc(F)cc2)c2ccc(F)cc2)CC1 | 77.1% | 26.8% | 47.6% | Activity [7]: 32.18%; Activity [8]: Dose-dependent effect; Activity [9]: Dose-dependent effect; Activity [10]: 41.83%; Activity [11]: 24.65%; Activity [12]: Dose-dependent effect; Activity [15]: inactive

Row | SMILES | viability at 10 µM [4] | viability at 0.1 µM [5] | viability at 1 µM [6] | further results
18 | COc1ccccc1OCC(=O)N1CCN(Cc2ccc(Br)cc2)CC1 | 20.8% | 38% | 41% | –
19 | COc1ccc(OCC(=O)N2CCN(C(c3ccc(OC)cc3)c3ccc(OC)cc3)CC2)cc1 | 56.7% | 59.4% | 80.7% | –
20 | O=C(COc1ccc(Br)cc1)N1CCN(Cc2ccc(Br)cc2)CC1 | – | – | – | Activity [1]: inactive; Activity [2]: inactive; Activity [3]: inactive
21 | COC(=O)c1ccccc1CN1CCN(C(=O)COc2ccccc2C)CC1 | 25.1% | 6.39% | 9.55% | –
22 | O=C(COc1ccc(Br)cc1)N1CCN(C(c2ccc(Br)cc2)c2ccc(Br)cc2)CC1 | – | – | – | Activity [1]: inactive; Activity [2]: inactive; Activity [3]: inactive
23 | COc1ccc(OCC(=O)N2CCN(C(c3ccc(F)cc3)c3ccc(F)cc3)CC2)cc1 | 80.5% | 3.1% | 5.26% | –
24 | COc1ccccc1OCC(=O)N1CCN(C(c2ccc(Br)cc2)c2ccc(Br)cc2)CC1 | 6.67% | 45.5% | 12.8% | –
25 | CCOc1ccccc1CN1CCN(C(=O)COc2ccccc2C)CC1 | 8.52% | 53.3% | 11.9% | –
26 | COc1ccccc1OCC(=O)N1CCN(C(c2ccc(C)cc2)c2ccc(C)cc2)CC1 | – | – | – | Activity [1]: inactive; Activity [2]: inactive; Activity [3]: inactive
27 | COC(=O)c1ccccc1CN1CCN(C(=O)COc2ccccc2OC)CC1 | 23.1% | 23.2% | 32.8% | –
28 | COC(=O)c1ccccc1CN1CCN(C(=O)COc2ccc(OC)cc2)CC1 | – | – | – | Activity [1]: inactive; Activity [2]: inactive; Activity [3]: inactive
29 | Cc1ccccc1OCC(=O)N1CCN(C(c2ccc(F)cc2)c2ccc(F)cc2)CC1 | 57% | 7.92% | 8.7% | –
30 | COC(=O)c1ccccc1CN1CCN(C(=O)COc2ccc(Cl)cc2)CC1 | 6.36% | 39.9% | 5.15% | –
31 | COC(=O)c1ccccc1CN1CCN(C(=O)COc2ccc(Br)cc2)CC1 | – | – | – | Activity [1]: inactive; Activity [2]: inactive; Activity [3]: inactive
32 | Cc1ccccc1OCC(=O)N1CCN(Cc2ccc(Br)cc2)CC1 | 20.8% | 10.2% | 22.1% | –
33 | O=C(COc1ccc(Cl)cc1)N1CCN(C(c2ccc(Br)cc2)c2ccc(Br)cc2)CC1 | 16.7% | 4.22% | 8.01% | –
34 | O=C(COc1ccc2ccccc2c1)N1CCN(C(c2ccc(F)cc2)c2ccc(F)cc2)CC1 | – | – | – | Activity [1]: inactive; Activity [2]: inactive; Activity [3]: inactive
